From patent publication US12492204B2, “Substituted (7H-pyrrolo[2,3-D]pyrimidin-4-yl) amino compounds useful as JAK 1 inhibitors” (CHEMWERTH, INC., priority 2019, dated 2025)

Columns and labels:
JAK1 = JAK1 (Homo sapiens (Human), UniProt P23458); test: JAK1 enzymatic assay; format: biochemical; details: for IC50: ATP 66 μM, Peptide D; for selectivity for JAK1 over JAK2 / selectivity for JAK1 over JAK3: from enzymatic IC50 values; for selectivity for JAK1 over JAK2: JAK1 vs JAK2; for selectivity for JAK1 over JAK3: JAK1 vs JAK3
Sequence of JAK1 (P23458 whole entry): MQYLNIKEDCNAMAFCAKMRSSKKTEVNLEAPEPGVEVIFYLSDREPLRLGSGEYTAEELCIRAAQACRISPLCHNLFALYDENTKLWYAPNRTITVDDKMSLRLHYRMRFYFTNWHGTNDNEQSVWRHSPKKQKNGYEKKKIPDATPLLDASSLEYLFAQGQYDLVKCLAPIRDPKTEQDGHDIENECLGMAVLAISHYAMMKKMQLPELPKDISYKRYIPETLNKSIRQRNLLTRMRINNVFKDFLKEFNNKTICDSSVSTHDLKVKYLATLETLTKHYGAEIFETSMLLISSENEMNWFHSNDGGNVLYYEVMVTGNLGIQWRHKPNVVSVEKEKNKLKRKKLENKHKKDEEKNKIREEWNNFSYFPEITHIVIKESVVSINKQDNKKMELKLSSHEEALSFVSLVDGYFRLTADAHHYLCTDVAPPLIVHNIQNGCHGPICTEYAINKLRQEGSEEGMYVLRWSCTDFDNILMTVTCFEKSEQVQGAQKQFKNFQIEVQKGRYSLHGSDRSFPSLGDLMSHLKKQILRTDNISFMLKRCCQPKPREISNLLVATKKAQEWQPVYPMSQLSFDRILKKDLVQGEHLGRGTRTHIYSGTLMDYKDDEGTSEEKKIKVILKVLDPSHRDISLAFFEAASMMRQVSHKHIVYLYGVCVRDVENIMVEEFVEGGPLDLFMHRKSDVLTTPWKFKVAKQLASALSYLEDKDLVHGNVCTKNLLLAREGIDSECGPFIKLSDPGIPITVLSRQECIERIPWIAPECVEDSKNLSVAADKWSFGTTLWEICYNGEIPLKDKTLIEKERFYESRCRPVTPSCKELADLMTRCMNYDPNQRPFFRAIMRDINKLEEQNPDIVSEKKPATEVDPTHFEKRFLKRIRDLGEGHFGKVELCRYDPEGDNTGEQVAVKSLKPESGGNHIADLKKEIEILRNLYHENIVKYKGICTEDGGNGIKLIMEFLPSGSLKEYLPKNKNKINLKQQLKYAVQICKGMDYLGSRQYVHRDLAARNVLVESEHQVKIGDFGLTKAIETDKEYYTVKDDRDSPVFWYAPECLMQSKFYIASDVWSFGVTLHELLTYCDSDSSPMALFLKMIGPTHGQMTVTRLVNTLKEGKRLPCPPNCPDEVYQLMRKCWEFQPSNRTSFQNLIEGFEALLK
Method: (§1) A. JAK1, JAK2, and JAK3 Enzymatic Assays
(§2) The JAK enzymatic assay used the following reagents.
(§3) Preparation of assay plate. Each sample or reference compound was diluted to 50× the desired highest inhibitor concentration with DMSO. Each sample or reference compound was serially diluted using a 96-well source plate so that there were 10 concentrations for testing. 10 μL from each well of the source plate was transferred to a 96-well intermediate plate. […] 5 μL from each well of the 96-well intermediate plate was transferred to a 384-well plate.
(§4) Kinase reaction. […] The term “max” refers to the DMSO control and “min” stands for low control. Curve-fitting of the data was performed using Xlfit excel add-in version 5.4.0.8 to obtain IC50 values. Equation used was Y=Bottom+(Top−Bottom)/(1+(Log IC50/X)^HillSlope. The peptide substrates used for each kinase, peptide concentration, enzyme concentration, and ATP concentrations are presented in TABLE 2.

JAK2 = JAK2 (Homo sapiens (Human), UniProt O60674); test: JAK2 enzymatic assay; format: biochemical; details: ATP 6.5 μM, Peptide22
Sequence of JAK2 (O60674 whole entry): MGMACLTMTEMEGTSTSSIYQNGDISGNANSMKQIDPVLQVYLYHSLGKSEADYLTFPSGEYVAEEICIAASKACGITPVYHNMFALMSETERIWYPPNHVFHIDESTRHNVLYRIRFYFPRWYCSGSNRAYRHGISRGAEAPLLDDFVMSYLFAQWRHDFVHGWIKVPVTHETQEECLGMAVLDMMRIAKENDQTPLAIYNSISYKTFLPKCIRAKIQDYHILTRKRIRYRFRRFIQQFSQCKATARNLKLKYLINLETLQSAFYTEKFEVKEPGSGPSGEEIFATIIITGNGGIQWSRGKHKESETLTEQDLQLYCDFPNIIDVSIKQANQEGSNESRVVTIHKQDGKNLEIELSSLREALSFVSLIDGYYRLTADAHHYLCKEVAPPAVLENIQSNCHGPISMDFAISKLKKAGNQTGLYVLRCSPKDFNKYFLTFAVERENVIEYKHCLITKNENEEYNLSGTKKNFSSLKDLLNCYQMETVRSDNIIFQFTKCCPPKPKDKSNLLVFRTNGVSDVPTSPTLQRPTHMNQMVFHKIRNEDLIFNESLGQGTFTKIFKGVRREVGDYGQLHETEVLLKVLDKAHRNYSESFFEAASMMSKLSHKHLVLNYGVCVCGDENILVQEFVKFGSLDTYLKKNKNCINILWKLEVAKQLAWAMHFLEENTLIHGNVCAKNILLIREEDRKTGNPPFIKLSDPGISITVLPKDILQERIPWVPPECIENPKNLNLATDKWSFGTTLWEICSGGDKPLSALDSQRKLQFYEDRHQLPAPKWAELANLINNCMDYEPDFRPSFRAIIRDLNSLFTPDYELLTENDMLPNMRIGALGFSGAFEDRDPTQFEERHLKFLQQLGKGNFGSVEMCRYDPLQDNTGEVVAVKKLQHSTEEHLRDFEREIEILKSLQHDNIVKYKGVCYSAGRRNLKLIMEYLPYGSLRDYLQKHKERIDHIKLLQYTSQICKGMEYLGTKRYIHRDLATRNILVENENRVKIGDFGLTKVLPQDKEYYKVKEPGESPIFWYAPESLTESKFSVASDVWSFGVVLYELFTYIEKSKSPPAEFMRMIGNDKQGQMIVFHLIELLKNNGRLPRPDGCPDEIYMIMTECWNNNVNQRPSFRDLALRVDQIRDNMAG
Method: as §1, §2
JAK2 (Carna Bio, USA, Inc. Natick, MA, Cat.No. 08-045)
as §3, §4

JAK3 = JAK3 (Homo sapiens (Human), UniProt P52333); test: JAK3 enzymatic assay; format: biochemical; details: ATP 6.2 μM, Peptide22
Sequence of JAK3 (P52333 whole entry): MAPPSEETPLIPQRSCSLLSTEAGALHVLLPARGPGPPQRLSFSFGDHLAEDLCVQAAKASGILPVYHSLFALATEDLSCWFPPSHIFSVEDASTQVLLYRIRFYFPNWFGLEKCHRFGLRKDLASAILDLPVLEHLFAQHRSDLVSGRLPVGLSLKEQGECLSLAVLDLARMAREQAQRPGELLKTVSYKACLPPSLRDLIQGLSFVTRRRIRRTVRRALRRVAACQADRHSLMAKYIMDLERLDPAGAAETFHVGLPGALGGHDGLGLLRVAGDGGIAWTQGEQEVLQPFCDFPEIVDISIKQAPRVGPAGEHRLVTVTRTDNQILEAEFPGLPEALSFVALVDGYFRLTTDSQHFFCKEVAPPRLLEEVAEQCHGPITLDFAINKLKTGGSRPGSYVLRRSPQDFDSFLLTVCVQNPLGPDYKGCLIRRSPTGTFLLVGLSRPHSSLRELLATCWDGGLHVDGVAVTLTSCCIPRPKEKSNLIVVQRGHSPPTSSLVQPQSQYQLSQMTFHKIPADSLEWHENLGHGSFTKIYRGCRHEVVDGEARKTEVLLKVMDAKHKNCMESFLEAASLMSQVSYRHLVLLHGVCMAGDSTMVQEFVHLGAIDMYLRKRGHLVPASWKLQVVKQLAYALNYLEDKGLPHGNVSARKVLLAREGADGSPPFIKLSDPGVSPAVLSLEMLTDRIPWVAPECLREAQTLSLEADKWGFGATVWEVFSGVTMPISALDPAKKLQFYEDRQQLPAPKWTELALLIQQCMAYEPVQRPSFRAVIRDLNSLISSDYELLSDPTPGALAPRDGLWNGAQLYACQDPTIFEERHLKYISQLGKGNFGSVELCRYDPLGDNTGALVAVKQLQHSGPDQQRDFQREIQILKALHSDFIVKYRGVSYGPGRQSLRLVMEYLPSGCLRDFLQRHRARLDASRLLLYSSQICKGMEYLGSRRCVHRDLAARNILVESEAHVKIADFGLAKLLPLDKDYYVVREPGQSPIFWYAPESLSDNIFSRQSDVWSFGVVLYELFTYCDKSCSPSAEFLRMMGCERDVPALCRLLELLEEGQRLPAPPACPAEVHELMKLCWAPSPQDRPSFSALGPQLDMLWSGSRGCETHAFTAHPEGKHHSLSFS
Method: as §1, §2
JAK3 (Carna Bio, USA, Inc. Natick, MA, Cat.No. 08-046)
as §3, §4

TYK2 = TYK2 (Homo sapiens (Human), UniProt P29597); test: TYK2 enzymatic assay; format: biochemical; details: ATP 16 μM, Peptide30
Sequence of TYK2 (P29597 whole entry): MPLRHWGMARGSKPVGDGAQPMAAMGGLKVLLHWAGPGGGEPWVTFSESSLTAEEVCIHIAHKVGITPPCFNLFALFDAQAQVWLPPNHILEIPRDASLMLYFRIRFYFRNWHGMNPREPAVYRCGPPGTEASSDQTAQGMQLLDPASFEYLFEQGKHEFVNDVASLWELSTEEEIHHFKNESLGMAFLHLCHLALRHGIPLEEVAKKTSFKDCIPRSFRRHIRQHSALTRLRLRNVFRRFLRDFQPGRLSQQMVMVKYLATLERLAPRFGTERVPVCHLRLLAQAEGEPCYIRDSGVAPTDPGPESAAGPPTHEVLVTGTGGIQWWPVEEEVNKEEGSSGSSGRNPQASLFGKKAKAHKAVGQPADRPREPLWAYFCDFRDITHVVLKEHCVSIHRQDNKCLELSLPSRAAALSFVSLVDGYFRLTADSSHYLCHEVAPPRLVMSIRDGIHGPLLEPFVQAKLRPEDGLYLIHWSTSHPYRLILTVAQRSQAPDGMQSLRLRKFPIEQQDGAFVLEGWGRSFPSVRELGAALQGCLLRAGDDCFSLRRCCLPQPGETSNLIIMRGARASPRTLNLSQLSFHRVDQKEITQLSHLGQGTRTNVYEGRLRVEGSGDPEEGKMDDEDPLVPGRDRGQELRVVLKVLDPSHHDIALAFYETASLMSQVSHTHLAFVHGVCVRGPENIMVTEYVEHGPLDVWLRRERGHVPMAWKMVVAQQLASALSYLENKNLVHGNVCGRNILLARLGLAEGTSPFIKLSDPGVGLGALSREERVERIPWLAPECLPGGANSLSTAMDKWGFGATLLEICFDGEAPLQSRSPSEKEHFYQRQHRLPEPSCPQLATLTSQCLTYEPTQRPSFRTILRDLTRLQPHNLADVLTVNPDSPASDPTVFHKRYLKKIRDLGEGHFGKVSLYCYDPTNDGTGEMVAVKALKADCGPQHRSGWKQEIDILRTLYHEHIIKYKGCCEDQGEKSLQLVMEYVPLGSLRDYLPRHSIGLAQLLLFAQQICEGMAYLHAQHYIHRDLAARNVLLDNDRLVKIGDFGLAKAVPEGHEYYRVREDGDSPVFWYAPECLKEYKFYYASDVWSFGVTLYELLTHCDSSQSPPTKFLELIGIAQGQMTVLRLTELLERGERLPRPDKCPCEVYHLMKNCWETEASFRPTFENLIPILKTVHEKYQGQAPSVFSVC

[1] = Metabolic stability assay (liver microsomes); format: in vitro ADME; details: dog liver microsomes; for Percent Remaining (%) 0 min / Percent Remaining (%) 5 min / Percent Remaining (%) 15 min / Percent Remaining (%) 30 min / Percent Remaining (%) 45 min: mean; for half-lives as compared with the reference compounds: vs Oclacitinib and ketanserin; for CLint scaled at 1 µM / half-life at 1 µM: pooled liver microsomes, pH 7.4
Method: Stock solutions of the sample and reference compounds were prepared in DMSO (10 mM). A spiking solution (500 μM) was prepared for each sample compound and reference compound by diluting 10 μL of the stock solution in ACN (190 μL). A microsomal spiking solution having a microsome concentration of 0.75 mg/mL was prepared for each sample: 1.5 μL of the respective 500 μM spiking solution was mixed with 18.75 μL microsomal solution (pooled liver microsomes, 20 mg/mL in 250 mM sucrose, Corning, Cat. No. 452601, Lot. No. 8176003) and 479.75 μL buffer (0.1 M potassium phosphate buffer, 1.0 mM EDTA, pH 7.4). The microsomal spiking solutions were cooled on ice. Assay plates with wells designated for different time points (0, 5, 15, 30 and 45 minutes) were cooled on ice. 30 μL of each microsomal spiking solution was added to the wells designated for different time points (0, 5, 15, 30 and 45 minutes). 135 μL of ACN containing IS was added to the wells of the plate labelled 0 minutes followed by 15 μL of the NaDPH stock solution (6 mM NaDPH in 0.1 M Potassium Phosphate buffer, 1.0 mM EDTA, pH 7.4). The plates for 5, 15, 30 and 45 minutes were incubated at 37° C. for 5 minutes. At 5 min, […], 30 min, and 45 min, 135 μL of ACN containing IS was added to the wells of the corresponding plates to quench the reaction. The plates were shaken [IKA vibrator, MTS 2/4] for 10 minutes and centrifuged at 5594 G for 15 minutes (Thermo Multifuge×3R). 50 μL of the supernatant from each well was transferred to a 96-well sample plate containing 50 μL of ultrapure water (Millipore, ZMQS50F01) for LC-MS analysis.

Structure (SMILES)	IC50 (JAK1) [µM]	selectivity for JAK1 over JAK2 (JAK1)	selectivity for JAK1 over JAK3 (JAK1) [fold]	IC50 (JAK2) [µM]	IC50 (JAK3) [µM]	IC50 (TYK2) [µM]	Percent Remaining (%) 0 min [1] [%]	Percent Remaining (%) 5 min [1] [%]	Percent Remaining (%) 15 min [1] [%]	Percent Remaining (%) 30 min [1] [%]	Percent Remaining (%) 45 min [1] [%]	half-lives as compared with the reference compounds [1]	CLint scaled at 1 µM [1] [mL/min/kg]	half-life at 1 µM [1] [h]
CNC(=O)N[C@H]1CC[C@H](N(C)c2ncnc3[nH]ccc23)CC1 [Compound 1, 1-methyl-3-((1r,4r)-4-(methyl(7H-pyrrolo[2,3-d]pyrimidin-4-yl)amino)cyclohexyl)urea]	0.156	87%	3.96	0.292	0.618	3.82								
CCCNC(=O)N[C@H]1CC[C@@H](N(C)c2ncnc3[nH]ccc23)CC1 [Compound 3, 1-propyl-3-((1r,4r)-4-(methyl(7H-pyrrolo[2,3-d]pyrimidin-4-yl)amino)cyclohexyl)urea]	0.019	3.7 fold	10.9	0.07	0.207	1.51	100.00	94.76	86.94	75.53	73.67	dramatically improved half-lives	35.4	1.63
CNS(=O)(=O)C[C@H]1CC[C@H](N(C)c2ncnc3[nH]ccc23)CC1 [Oclacitinib, reference compound]	0.0066	45%	10.6	0.0093	0.07	0.077	100.00	94.12	82.56	68.65	62.97		53	1.09
CCNC(=O)N[C@H]1CC[C@H](N(C)c2ncnc3[nH]ccc23)CC1 [Compound 2, 1-ethyl-3-((1r,4r)-4-(methyl(7H-pyrrolo[2,3-d]pyrimidin-4-yl)amino)cyclohexyl)urea]	0.043	2.9 fold	10.4	0.126	0.447	1.79								
CC(C)NC(=O)N[C@H]1CC[C@H](N(C)c2ncnc3[nH]ccc23)CC1 [Compound 4, 1-isopropyl-3-((1r,4r)-4-(methyl(7H-pyrrolo[2,3-d]pyrimidin-4-yl)amino)cyclohexyl)urea]	0.04	3.35 fold	15.4	0.134	0.615	2.71								
CN(c1ncnc2[nH]ccc12)[C@H]1CC[C@H](NC(=O)NCC#N)CC1 [Compound 5, 1-(cyanomethyl)-3-((1r,4r)-4-(methyl(7H-pyrrolo[2,3-d]pyrimidin-4-yl)amino)cyclohexyl)urea]	0.0075	2.4 fold	3.5	0.018	0.026	0.415	100.00	100.66	95.39	87.57	86.91	dramatically improved half-lives	18.2	3.16
CN(c1ncnc2[nH]ccc12)[C@H]1CC[C@H](NC(=O)NCC(F)(F)F)CC1 [Compound 6, 1-((1r,4r)-4-(methyl(7H-pyrrolo[2,3-d]pyrimidin-4-yl)amino)cyclohexyl)-3-(2,2,2-trifluoroethyl)urea]	0.0023	6 fold	18.3	0.014	0.042	0.335	100.00	93.91	85.39	76.25	71.95	dramatically improved half-lives	36.5	1.58
O=C(c1ccc(F)cc1)C1CCN(CCn2c(=O)[nH]c3ccccc3c2=O)CC1 [ketanserin, reference compound]							100.00	82.91	62.01	42.37	36.16		114	0.505
